The values that follow come from patent US6965013B2, “Intermedin and its uses” (The Board of Trustees of the Leland Stanford Junior …, priority 2002, dated 2005).

Ends that are not written are not given here.

Test [1] concerns spontaneously hypertensive rats (SHR). Nature of the test: Blood pressure in spontaneously hypertensive rats (tail-cuff). It is filed as in vivo, rat. To be noted: male SHR, FIG. 6D; for blockage of the hypotensive effects of IMDL: cotreatment with IMDL. As for the experimental part: (§1) Effects of intermedin on blood pressure and heart rate in normal and hypertensive rats. Blood pressure measurements in conscious male Sprague-Dawley rats and spontaneously hypertensive rats (SHR)(7-9 weeks of age) were made in animals preadapted to the measurement procedure. Indirect systolic pressure was determined by a programmable NIBP system using the tail-cuff method (Columbus Instruments, Columbus, Ohio). Following attachment of the pressure transducer, rats were left undisturbed for 10 min before baseline measurements that spanned a 15-min interval. Following baseline measurements, rats were injected intraperitoneally with varying doses of hormones. Blood pressure and heart rate were monitored for 40 min at 20-sec intervals. Changes in blood pressure were calculated as the average of thirty measurements performed within each 10-min interval.

The next test has as its system male Sprague-Dawley rats. The test can be described thus: Blood pressure and heart rate in normal rats (tail-cuff). It is filed as in vivo, rat. To be noted: for blockage of the hypotensive effect of IMDL: male Sprague-Dawley rats, cotreatment with IMDL, CGRP8-37 in 20-fold excess, FIG. 6C; for systolic blood pressure / heart rate: conscious male Sprague-Dawley rats, intraperitoneal; for systolic blood pressure: monitored 40 min, FIGS. 6A, 6C; for heart rate: FIG. 6B. As to the method: as §1

In test [2] the target is T1, SK-N-MC cells expressing endogenous CRLR (CGRP receptor) (Homo sapiens, UniProt O60894+Q16602).
T1 construct: expressing endogenous CRLR; host or cells: SK-N-MC human neuroblastoma cells
The test can be described thus: Stimulation of cAMP production in SK-N-MC cells. Type of test: cell-based. To be noted: 30 min treatment, 2.5 mM IBMX, FIG. 2A. As to the method:
(§2) Human neuroblastoma SK-N-MC and rat L6 skeletal myoblast cells expressing endogenous CRLR were obtained from American Type Culture Collection. To estimate adenylyl cyclase activation, SK-N-MC and L6 cells (2×10^5 viable cells/well) were plated in 24-well culture dishes in DMEM/F12 medium one day before treatment. Following 2 h incubation in serum-free DMEM/F12 medium, cells were treated with testing reagents for 30 min in medium containing 0.1% BSA and 2.5 mM 3-isobutyl-1-methylxanthine (IBMX, Sigma-Aldrich Corp.) to prevent hydrolysis of cAMP by phosphodiesterases. Following treatment, cells were lysed and cAMP content determined by a specific radioimmunoassay.

Test [3] deals with T2, L6 skeletal myoblast cells expressing endogenous CRLR (CGRP receptor) (Rattus norvegicus, UniProt Q63118+Q9JJ74).
T2 construct: expressing endogenous CRLR; host or cells: L6 rat skeletal myoblast cells
Nature of the test: Stimulation of cAMP production in L6 cells. Type of test: cell-based. To be noted: for cAMP production: 30 min treatment, 2.5 mM IBMX, FIG. 2B. As for the experimental part: as §2

Test [4] concerns C57/BL6 male mice. Nature of the test: Gastric emptying activity in mice. To be noted: intraperitoneal 100 nM/Kg, 90 min after hormone treatment, FIG. 8. It is filed as in vivo, mouse. As for the experimental part:
Effects of intermedin on gastric emptying activity. Eight-week-old C57/BL6 male mice deprived of food for 20 h were given food pellets for 90 min before intraperitoneal injection with different hormones or saline. After treatment, mice were deprived of food again and killed 90 min later. The stomach was excised at the pylorus and cardia before weighing. Gastric emptying was calculated by comparing the stomach weight of treated mice to the stomach weight of control mice killed at the time of hormone injection.

The subject of test [5] is C57/BL6 male mice. The test can be described thus: Cumulative food intake in fasted mice. It is filed as in vivo, mouse. As to conditions: mice fasted 20 h, intraperitoneal 100 nM/Kg, 1, 2 and 4 h after treatment, FIG. 7. As to the method: Analysis of ingestive behavior. Eight-week-old C57/BL6 male mice were housed individually in a regulated environment. Before intraperitoneal injection with testing reagents, mice were deprived of food for 20 h with free access to water. Food intake was measured by placing preweighed pellets in the cage and weighing uneaten pellets at 1, 2, and 4 h after treatment.

Test [6] has as its target T3, CGRP receptor (CRLR) on intact L6 cells (Rattus norvegicus, UniProt Q63118+Q9JJ74).
T3 construct: expressing endogenous CRLR; host or cells: L6 rat skeletal myoblast cells
Nature of the test: Receptor-binding assay, displacement of 125I-CGRP from L6 cells. To be noted: 37C, 2 h, FIG. 2F. As for the experimental part: Receptor-binding assay. Ligand-binding assays were done in siliconized microfuge tubes at 37C for 2 h. […] After a 2 h incubation at 37C, the cell-associated ligand was estimated. Radioactivity was determined using a γ-counter (EG&G Wallace, Gaithersburg, Md.).
In general terms: Loss of bound radioactivity is the signal in a displacement assay; it reports binding, not function.

The conditions of test [7]: humans, administration of ADM, earlier studies; cited from earlier work.
The target of test [8] is T4, endogenous calcitonin receptor (Homo sapiens, UniProt P30988).
T4 construct: through the endogenous calcitonin receptor; endogenous in cells; host or cells: HEK293T
T4 sequence (P30988 25-474): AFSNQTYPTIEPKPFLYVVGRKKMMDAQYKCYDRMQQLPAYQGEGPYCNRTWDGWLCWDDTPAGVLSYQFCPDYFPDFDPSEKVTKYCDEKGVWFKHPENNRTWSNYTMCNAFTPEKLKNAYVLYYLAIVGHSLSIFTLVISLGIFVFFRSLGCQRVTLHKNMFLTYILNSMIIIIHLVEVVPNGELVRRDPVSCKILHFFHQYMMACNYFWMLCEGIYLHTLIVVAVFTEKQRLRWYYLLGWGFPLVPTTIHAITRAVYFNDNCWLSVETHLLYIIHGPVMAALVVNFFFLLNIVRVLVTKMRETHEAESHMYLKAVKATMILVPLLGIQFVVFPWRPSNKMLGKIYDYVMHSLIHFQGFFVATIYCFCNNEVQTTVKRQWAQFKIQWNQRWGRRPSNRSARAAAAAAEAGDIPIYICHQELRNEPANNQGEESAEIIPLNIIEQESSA
Nature of the test: cAMP production in 293T cells via the endogenous calcitonin receptor. It is filed as cell-based. As to conditions: FIG. 3A. (Changes in cAMP serve as a functional read-out for many G protein-coupled receptors.)

T2 sequence (Q63118 24-464): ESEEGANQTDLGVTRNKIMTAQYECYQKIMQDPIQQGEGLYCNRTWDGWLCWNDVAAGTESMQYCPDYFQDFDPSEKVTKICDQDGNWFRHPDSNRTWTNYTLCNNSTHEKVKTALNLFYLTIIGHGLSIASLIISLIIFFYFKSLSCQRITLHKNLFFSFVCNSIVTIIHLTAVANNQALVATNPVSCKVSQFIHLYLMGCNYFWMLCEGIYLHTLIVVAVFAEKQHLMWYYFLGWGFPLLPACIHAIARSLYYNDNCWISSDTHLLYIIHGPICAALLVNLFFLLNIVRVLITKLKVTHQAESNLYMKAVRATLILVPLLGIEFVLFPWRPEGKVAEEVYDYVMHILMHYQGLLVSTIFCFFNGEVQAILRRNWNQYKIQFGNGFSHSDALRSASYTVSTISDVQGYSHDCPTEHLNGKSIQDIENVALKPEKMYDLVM
T2 sequence (Q9JJ74 27-148 partner): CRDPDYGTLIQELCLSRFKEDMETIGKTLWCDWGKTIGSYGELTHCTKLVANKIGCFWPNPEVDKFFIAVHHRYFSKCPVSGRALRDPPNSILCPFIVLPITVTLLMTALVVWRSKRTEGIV
T3 sequence (Q63118 24-464): as the sequence (Q63118 24-464) above
T3 sequence (Q9JJ74 27-148 partner): as the sequence (Q9JJ74 27-148 partner) above
T1 sequence (Q16602 23-461): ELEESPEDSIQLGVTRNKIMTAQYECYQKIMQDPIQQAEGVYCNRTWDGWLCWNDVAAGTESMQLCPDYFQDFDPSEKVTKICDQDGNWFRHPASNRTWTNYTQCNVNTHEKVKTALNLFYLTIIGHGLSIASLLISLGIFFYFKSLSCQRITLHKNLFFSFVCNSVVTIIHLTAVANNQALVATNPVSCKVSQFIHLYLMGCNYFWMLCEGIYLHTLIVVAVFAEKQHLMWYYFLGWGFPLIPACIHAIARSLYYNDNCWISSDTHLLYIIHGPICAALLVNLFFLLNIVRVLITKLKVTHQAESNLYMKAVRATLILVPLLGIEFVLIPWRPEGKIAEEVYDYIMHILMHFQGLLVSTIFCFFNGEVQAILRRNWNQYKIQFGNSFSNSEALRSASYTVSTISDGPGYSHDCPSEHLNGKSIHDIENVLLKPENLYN
T1 sequence (O60894 27-148 partner): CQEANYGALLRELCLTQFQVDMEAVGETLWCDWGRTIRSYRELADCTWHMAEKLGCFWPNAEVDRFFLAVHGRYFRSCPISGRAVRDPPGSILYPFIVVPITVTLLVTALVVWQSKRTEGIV

As for “ADM22-52: low affinity ADM22-52 fragment (TVQKLAHQIYQFTDKDKDNVAPRSKISPQGY; ends and bridges not checked; UniProt P35318 116-146, looked up, fragment)”, the “blockage of the hypotensive effects of IMDL” value in [1] is recorded as “minimal effect”.

On to “CGRP8-37: N-terminally truncated CGRP, a CGRP receptor antagonist (VTHRLAGLLSRSGGVVKNNFVPTNVGSKAF; ends and bridges not checked; UniProt P06881 90-119, looked up, fragment) [reference compound]”, for which, in the test on male Sprague-Dawley rats, the “blockage of the hypotensive effect of IMDL” value is “significantly decreased the hypotensive effects of IMDL”. Further, the “blockage of the hypotensive effects of IMDL” value in [1] is “abolished”.

For “IMD17-47: truncated amidated intermedin fragment, putative C-terminal receptor-binding domain (VQNLSHRLWQLMGPAGRQDSAPVDPSSPHSY-NH2)”, in the test on male Sprague-Dawley rats, the systolic blood pressure entry is given as “no effect” and the “blockage of the hypotensive effect of IMDL” value was “blocked the hypotensive effects of IMDL”. Further, in test [2], the cAMP production result is “no effect”. The cAMP production result in test [3] was “no effect”. Moreover, the “blockage of the stimulatory effect of intermedin on cAMP production” value in [3] (cotreatment with intermedin, IMD17-47 at 1 μM, FIGS. 2C, 2D) is given as “functional antagonist of intermedin action”.

As for “IMDL: 47-amino-acid amidated mature human intermedin peptide, SEQ ID NO:5 residues 1-47”, in the test on male Sprague-Dawley rats, the heart rate entry is given as “increased heart rate” and the systolic blood pressure result was “dose-dependently suppressed blood pressure”. For the same substance, the gastric emptying activity result in the test on C57/BL6 male mice [4] is reported as “Reduction of gastric emptying”. For the same substance, the cumulative food intake result with C57/BL6 male mice [5] is “decreased food intake”. In test [1] (intraperitoneal), the blood pressure result is reported as “reduced blood pressure”. In addition, the “competitive displacement of 125I-CGRP binding” value in [6] is recorded as “displaced ^125I-CGRP binding”. The cAMP production result in test [3] is on record as “dose-dependent increases of cAMP production”.

As to “IMDS: 40-amino-acid amidated mature human intermedin peptide, SEQ ID NO:5 residues 8-47”, in the test on male Sprague-Dawley rats, the heart rate entry was “increased heart rate” and the systolic blood pressure entry was “dose-dependently suppressed blood pressure”. Besides, the gastric emptying activity result with C57/BL6 male mice [4] was “Reduction of gastric emptying”. For the same substance, the cumulative food intake result in the test with C57/BL6 male mice [5] was “decreased food intake”. The “competitive displacement of 125I-CGRP binding” value in test [6] is recorded as “displaced ^125I-CGRP binding”. Moreover, the cAMP production entry in test [3] was “dose-dependent increases of cAMP production”.

As for “SRP/urocortin II: type II CRH receptor-selective agonist, known gastric emptying suppression peptide (IVLSLDVPIGLLQILLEQARARAAREQATTNARILARVGHC; Urocortin-2; UniProt Q96RP3 72-112, looked up) [reference compound]”, in the test with C57/BL6 male mice [4], the gastric emptying activity entry was “Reduction of gastric emptying”. The cumulative food intake entry with C57/BL6 male mice [5] is “decreased food intake”.

On to “adrenomedullin [ADM, reference compound]”, for which, in the test with male Sprague-Dawley rats, the heart rate result was “Increase in heart rate” and the systolic blood pressure entry is “dose-dependently suppressed systolic blood pressure”. In the test on C57/BL6 male mice [4], the gastric emptying activity result is recorded as “suppressed the gastric emptying activity, but with a lower potency”. Further, the cumulative food intake entry in the test with C57/BL6 male mice [5] was “decreased food intake”. In addition, the circulating prolactin levels result in test [7] is reported as “increases circulating prolactin levels”. Further, the cAMP production result in [3] is given as “stimulated cAMP production”.

For calcitonin, the cAMP production entry in [8] is given as “increases cAMP dose-dependently”.

With “nonamidated form of intermedin: nonamidated form of the synthetic intermedin peptide”, the cAMP production result in [3] is reported as “no effect”.

Regarding “prointermedin55-85: 31-amino-acid peptide from the prepro-region of human intermedin (PRPVVWKLHRALQAQRGAGLAPVMGQPLRDG; pro-form; UniProt Q7Z4H4 55-85, looked up, fragment)”, in the test on male Sprague-Dawley rats, the systolic blood pressure entry is given as “no effect”. In addition, the cAMP production result in test [2] and in test [3] was “no effect” in each case.
